Measurements published in US20110237567A9, “TRICYCLIC SPIRO-OXINDOLE DERIVATIVES AND THEIR USES AS THERAPEUTIC AGENTS” (XENON PHARMACEUTICALS INC., priority 2006, published 2011).

Experiments:
sodium channel = assay: Guanidine influx assay (in vitro); format: cell-based, human or rat; conditions: known cell line that expresses a sodium channel; read-out: IC50 Activity Level
Description: This example describes an in vitro assay for testing and profiling test agents against human or rat sodium channels stably expressed in cells of either an endogenous or recombinant origin. The assay is also useful for determining the IC-50 of a sodium channel blocking compound. The assay is based on the guanidine flux assay described by Reddy, N. L., et al., J Med Chem (1998), 41(17):3298-302.
The guanidine influx assay is a radiotracer flux assay used to determine ion flux activity of sodium channels in a high-throughput microplate-based format. The assay uses ^14C-guanidine hydrochloride in combination with various known sodium channel modulators, to assay the potency of test agents. Potency is determined by an IC-50 calculation. Selectivity is determined by comparing potency of the compound for the channel of interest to its potency against other sodium channels (also called ‘selectivity profiling’). […]
Cells expressing the channel of interest are grown according to the supplier or in the case of a recombinant cell in the presence of selective growth media such as G418 (Gibco/Invitrogen). The cells are disassociated from the culture dishes with an enzymatic solution (1×) Trypsin/EDTA (Gibco/Invitrogen) and analyzed for density and viability using haemocytometer (Neubauer). […]
IC-50 value of a test agent for a specific sodium channel may be determined using the above general method. […]

IC50 (sodium channel) [nM] | melting point [°C] | Structure (SMILES)
100 to 1000 |  | O=C1N2CCCOc3cccc(c32)C12COc1cc3c(cc12)OCO3 (stereo not drawn) [Example 2]
10 to 100 |  | O=C1N2CCCCc3ccc(Br)c(c32)C12COc1cc3c(cc12)OCO3 (stereo not drawn) [Example 4]
 | 216 to 217 | O=C1N2CCCSc3cccc(c32)C12COc1cc3c(cc12)OCO3 (stereo not drawn) [Synthetic Example 1, 3′,4′-Dihydro-2′H-spiro[furo[2,3-f][1,3]benzodioxole-7,7′-[1,4]thiazepino[2,3,4-hi]indol]-6′-one]
